Measurements from article PMC12684298, “The Parkinson's Disease Drug Tolcapone and Analogues are Potent Glycomimetic Lectin Inhibitors of Pseudomonas aeruginosa LecA” (Angewandte Chemie (International Ed. in English), 2025).

Assays:
LecA [1] = biological target: T1, LecA (Pseudomonas aeruginosa, UniProt Q05097); assay: biochemical; format: binding
T1 construct: made in house; host or cells: E. coli BL21 (DE3), plasmid pET25pa11
Method: Therefore, we focused our attention on commercially available nitro‐catechols. Prominent derivatives are inhibitors of the enzyme catechol‐O‐methyltransferase (COMT) and approved drugs for the treatment of Parkinson's disease. Four commercial COMT inhibitors were thus evaluated in a previously reported competitive binding assay based on fluorescence polarisation (FP, Table 1, Figure 1).^[ [32] ^]
The competitive binding assay was performed in analogy to Joachim et al.^[2] 10 µL of a solution containing LecA (40 µM) and sulfo-Cy5-Gal (20 nM, synthesis described in Kuhaudomlarp, Siebs et al.^[5]) in TBS/Ca buffer (20 mM Tris, 147 mM NaCl, 2.6 mM KCl at pH 7.4 supplemented with 1 mM CaCl2) were distributed in into wells of a black 384-well microtiter plate (Greiner Bio-One, Germany, cat no 781900). Then, 10 µL of serial dilutions of compounds (3 mM to 1.5 µM, dilution factor 0.5) in TBS/Ca with 40% DMSO were added in technical triplicates. Final concentrations after mixing were the following: 1.5 mM – 0.73 µM compound, 20 µM LecA, 10 nM sulfo-Cy5-Gal and 20% DMSO. The plate was sealed (EASYseal, Greiner Bio-One, cat no 676001), briefly centrifuged and incubated at room temperature in the dark under shaking conditions. Fluorescence intensity was measured after 1 h and 4 h using a PheraStar FS plate reader (BMG Labtech GmbH, Germany) with spectral filters for excitation at 590 nm and emission at 675 nm and polarization was calculated after blank values of 20 µM LecA in TBS/Ca buffer with 20% DMSO were subtracted from the test compounds. The data were analysed using the four-parameter variable slope model of the MARS Data Analysis software. The top and bottom plateau were assigned based on the control compound methyl α-d-galactoside and the data was reanalysed with these fixed values. If not mentioned otherwise, the experiment was repeated at least three times for each compound and the average and standard deviation are given. In case Triton X-100 was used it was added to the TBS/Ca buffer before the assay.

LecA [2] = biological target: T1, LecA; assay: Library screening using the FP competitive binding assay (three concentrations); settings: read-out: Activity [%] (% inhibition relative to 500 µM pNPGal)
Description: Next, we screened a library of catechols from F. Hoffmann‐La Roche, the developer of Tolcapone, in the competitive binding assay to establish a structure–activity relationship. To this end, two sets of compounds with a molecular cut‐off of 500 Da were chosen: a first set of 342 compounds contained derivatives of Tolcapone, while a second set of 3222 compounds comprised catechols covering a larger chemical space. […] Tests were run in a 384‐well‐plate format at three concentrations (first set at 125, 32, and 4 µM, second set at 100, 25, and 3 µM) in presence of 10% DMSO and 250 µM 2‐mercaptoethanol to prevent interference by a potential unspecific reactivity of electron‐rich catechols as established earlier.^[ [30] ^]
The screening followed the same assay by Joachim et al.^[2] as described above. Compounds in DMSO (1 µL with the appropriate concentration) were plated using a robot into black 384-well microtiter plates (Greiner Bio-One, Germany, cat no 781900) by the Roche compound handling facility at four replicates per concentration and compound. A mixture of LecA, sulfo-Cy5-Gal and 2-mercaptoethanol in TBS/Ca (20 mM Tris, 147 mM NaCl, 2.6 mM KCl at pH 7.4 supplemented with 1 mM CaCl2) with DMSO was added at HIPS. Final concentrations in both screening rounds were the following: 5 µM LecA, 250 µM 2-mercaptoethanol, 10 nM sulfo-Cy5-Gal and 10% DMSO. Final concentrations of the 342 compounds of the first screening round were 125 µM, 32 µM and 4 µM. The 3222 compounds of the second screening round were tested at final concentrations of 100 µM, 25 µM and 3 µM. The plate was sealed (EASYseal, Greiner Bio-One, cat no 676001), briefly centrifuged and incubated at room temperature in the dark under shaking conditions. Fluorescence intensities were measured after 1 h and 24 h using a PheraStar FS plate reader (BMG Labtech GmbH, Germany) with spectral filters for excitation at 590 nm and emission at 675 nm and polarization was calculated after blank values of 5 µM LecA in TBS/Ca buffer with 250 µM 2-mercaptoethanol and 10% DMSO were subtracted from the test compounds. The data were analysed using the MARS Data Analysis software. […] All stated values are the average including the standard deviation based on three replicates for 100 µM and four replicates in the case of compounds at 125 µM.

[3] = IC50, extended dose-response analysis, 20% DMSO, no 2-mercaptoethanol, three experiments
[4] = IC50 in presence of 0.01% Triton X-100, FP assay, 0.01% Triton X-100, one replicate
[5] = IC50 in presence of 0.057% Triton X-100, FP assay, 0.057% Triton X-100, one replicate
[6] = LecA inhibition, competitive binding assay (FP), tested up to 1.5 mM, n ≥ 2

T1 sequence (Q05097 whole entry): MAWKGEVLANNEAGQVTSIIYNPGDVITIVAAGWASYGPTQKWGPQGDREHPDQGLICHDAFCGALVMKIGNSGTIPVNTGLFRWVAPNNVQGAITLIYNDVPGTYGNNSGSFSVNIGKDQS

| Compound | IC50 (LecA [1]; [3]) | other results |
| --- | --- | --- |
| CCCCCOC(=O)c1cccc(C(=O)c2cc(O)c(O)c([N+](=O)[O-])c2)c1 [compound 34] | 63 µM | IC50 (LecA [1]; [4]): 88 µM; IC50 (LecA [1]; [5]): 61 µM |
| CCN(CC)C(=O)c1cccc(C(=O)c2cc(O)c(O)c([N+](=O)[O-])c2)c1 [RO0621115] | 229 µM | – |
| O=C(c1cccc(F)c1)c1cc(O)c(O)c([N+](=O)[O-])c1 [RO0412713] | 675 µM | – |
| Cc1ccc(C(=O)c2cc(O)c(O)c(C(N)=O)c2)cc1 [compound 11] | – | inhibition at 100 µM (LecA [2]): 21.8 ± 3.4% |
| Cc1ccc(C(=O)c2cc(O)c(O)c(O)c2)cc1 [compound 7] | – | inhibition at 100 µM (LecA [2]): 7.5 ± 4.9% |
| CCCCOC(=O)c1cccc(C(=O)c2cc(O)c(O)c([N+](=O)[O-])c2)c1 [RO0626778] | 117 µM | – |
| CC(=O)C(=Cc1cc(O)c(O)c([N+](=O)[O-])c1)C(C)=O [compound 1, Nitecapone, reference compound] | – | IC50 (LecA [1]; [6]): no inhibition; IC50 (LecA [1]; LecA inhibition, competitive binding assay (FP), tested up to 1.5 mM, n ≥ 2, listed as Nitecapone): inactive |
| O=C(c1cc(O)c(O)c([N+](=O)[O-])c1)c1ncc[nH]1 [compound 26] | – | inhibition at 100 µM (LecA [2]): 16.8 ± 3.8% |
| O=C(c1cc(O)c(O)c([N+](=O)[O-])c1)c1ccccc1C(F)(F)F [RO0413162] | 128 µM | – |
| Cc1c(C(=O)c2cc(O)c(O)c([N+](=O)[O-])c2)[nH]c2ccc(Br)cc12 [compound 30] | 43 µM | IC50 (LecA [1]; [4]): 59 µM |
| CCCCCOC(=O)c1ccc(C(=O)c2cc(O)c(O)c([N+](=O)[O-])c2)cc1 [compound 35] | 72 µM | IC50 (LecA [1]; [5]): 66 µM |
| O=C(OCCC(O)C(F)(F)F)c1cccc(C(=O)c2cc(O)c(O)c([N+](=O)[O-])c2)c1 (stereo not shown) [RO0622624] | 135 µM | – |
| O=C(c1ccccc1)c1cc(O)c(O)c([N+](=O)[O-])c1 [compound 29] | – | inhibition at 100 µM (LecA [2]): 41.8 ± 7.3% |
| O=[N+]([O-])c1cc(-c2cn3ncsc3n2)cc(O)c1O [RO0199733] | > 1500 µM | – |
| O=C(OCc1ccccc1)c1ccc(C(=O)c2cc(O)c(O)c([N+](=O)[O-])c2)cc1 [compound 31] | 47 µM | IC50 (LecA [1]; [4]): 17 µM; IC50 (LecA [1]; [5]): 16 µM |
| O=C(C(=O)c1cc(O)c(O)c([N+](=O)[O-])c1)c1ccccc1 [RO0621161] | 153 µM | – |
| Cc1c(C(=O)c2cc(O)c(O)c([N+](=O)[O-])c2)[nH]c2ccccc12 [RO0403335] | 434 µM | – |
| CCCN(CCC)C(=O)c1cccc(C(=O)c2cc(O)c(O)c([N+](=O)[O-])c2)c1 [RO0621116] | 173 µM | – |
| CC(C)(C)COC(=O)c1cccc(C(=O)c2cc(O)c(O)c([N+](=O)[O-])c2)c1 [RO0626777] | 206 µM | – |
| Cc1ccc(C(=O)C(=O)c2cc(O)c(O)c([N+](=O)[O-])c2)cc1 [RO0619291] | 128 µM | – |
| N#Cc1ccccc1C(=O)c1cc(O)c(O)c([N+](=O)[O-])c1 [RO0413268] | 214 µM | – |
| CCN(CC)C(=O)/C(C#N)=C/c1cc(O)c(O)c([N+](=O)[O-])c1 [compound 2, Entacapone, reference compound] | – | IC50 (LecA [1]; [6]): no inhibition; IC50 (LecA [1]; LecA inhibition, competitive binding assay (FP), tested up to 1.5 mM, n ≥ 2, listed as Entacapone): inactive |
| O=C(NC1CCCCC1)c1cccc(C(=O)c2cc(O)c(O)c([N+](=O)[O-])c2)c1 [RO0626783] | 430 µM | – |
| C=CCOC(=O)c1ccc(C(=O)c2cc(O)c(O)c([N+](=O)[O-])c2)cc1 [compound 32] | 56 µM | IC50 (LecA [1]; [4]): 49 µM; IC50 (LecA [1]; [5]): 50 µM |
| CC(C)OC(=O)c1cccc(C(=O)c2cc(O)c(O)c([N+](=O)[O-])c2)c1 [RO0621109] | 156 µM | – |
| O=C(c1cccc(CO)c1)c1cc(O)c(O)c([N+](=O)[O-])c1 [RO0623430] | 446 µM | – |

| Compound | IC50 (LecA [1]; [3]) | other results |
| --- | --- | --- |
| CCCN(CCC)C(=O)c1c(Br)cc(O)c(O)c1[N+](=O)[O-] [RO0627603] | 285 µM | – |
| C=CCOC(=O)c1cccc(C(=O)c2cc(O)c(O)c([N+](=O)[O-])c2)c1 [RO0620810] | 139 µM | – |
| Cc1ccc(C(=O)c2ccc(O)c(O)c2[N+](=O)[O-])cc1 [RO0614977] | 154 µM | – |
| O=C(c1cc(O)c(O)c([N+](=O)[O-])c1)c1ccccc1Cl [RO0413301] | 108 µM | – |
| CC(C)c1ccc(C(=O)c2cc(O)c(O)c([N+](=O)[O-])c2)cc1 [RO0615928] | 129 µM | – |
| COC(=O)c1cccc(C(=O)c2cc(O)c(O)c([N+](=O)[O-])c2)c1 [RO0620808] | 279 µM | – |
| CCCNC(=O)c1cccc(C(=O)c2cc(O)c(O)c([N+](=O)[O-])c2)c1 [RO0621005] | 422 µM | – |
| CCCNC(=O)c1ccc(C(=O)c2cc(O)c(O)c([N+](=O)[O-])c2)cc1 [RO0620570] | 347 µM | – |
| Cc1c(Cl)c(C)[n+]([O-])c(Cl)c1-c1noc(-c2cc(O)c(O)c([N+](=O)[O-])c2)n1 [compound 3, Opicapone, reference compound] | – | IC50 (LecA [1]; IC50, LecA inhibition, competitive binding assay (FP), tested up to 1.5 mM, n ≥ 2): 842 ± 134 µM |
| COC(=O)/C=C/c1cccc(C(=O)c2cc(O)c(O)c([N+](=O)[O-])c2)c1 [RO0619973] | 258 µM | – |
| Cc1ccccc1C(=O)c1cc(O)c(O)c([N+](=O)[O-])c1 [RO0412734] | 116 µM | – |
| CC(O)CCOC(=O)c1cccc(C(=O)c2cc(O)c(O)c([N+](=O)[O-])c2)c1 (stereo not shown) [RO0621239] | 192 µM | – |
| O=C(c1cc(O)c(O)c([N+](=O)[O-])c1)c1cncc2ccccc12 [RO0408176] | 449 µM | – |
| CC(C)(C)c1ccc(C(=O)c2cc(O)c(O)c([N+](=O)[O-])c2)cc1 [RO0615662] | 144 µM | – |
| O=C(NCC1CC1)c1cccc(C(=O)c2cc(O)c(O)c([N+](=O)[O-])c2)c1 [RO0621004] | 363 µM | – |
| CCCCNC(=O)c1cccc(C(=O)c2cc(O)c(O)c([N+](=O)[O-])c2)c1 [RO0621006] | 283 µM | – |
| CCOC(=O)c1cccc(C(=O)c2cc(O)c(O)c([N+](=O)[O-])c2)c1 [RO0620809] | 244 µM | – |
| COC(=O)c1ccc(C(=O)c2cc(O)c(O)c([N+](=O)[O-])c2)cc1 [RO0621265] | 330 µM | – |
| CCN(CC)C(=O)c1ccc(C(=O)c2cc(O)c(O)c([N+](=O)[O-])c2)cc1 [RO0620573] | 438 µM | – |
| O=C(c1cc(O)c(O)c([N+](=O)[O-])c1)c1ccnc2ccccc12 [RO0405919] | 174 µM | – |
| O=C(NCc1ccccc1)c1cccc(C(=O)c2cc(O)c(O)c([N+](=O)[O-])c2)c1 [RO0626786] | 356 µM | – |
| COCCOCc1ccc(C(=O)c2cc(O)c(O)c([N+](=O)[O-])c2)cc1 [RO0624122] | 289 µM | – |
| Cc1ccc(C(=O)c2cc(O)c(O)c(S(=O)(=O)C(F)(F)F)c2)cc1 [RO0616411] | 338 µM | – |
| O=C(c1ccncc1)c1cc(O)c(O)c([N+](=O)[O-])c1 [RO0403499] | 597 µM | – |
| O=C(c1ccc(F)cc1)c1cc(O)c(O)c([N+](=O)[O-])c1 [RO0407028] | 370 µM | – |
